These results are taken from ChEMBL document CHEMBL5126532, “Synthetic approaches and structural diversity of triazolylbutanols derived from voriconazole in the antifungal drug development” (Eur J Med Chem, 2022).

Data set [1] can be described thus: Prodrug conversion in rat plasma assessed as half life. The data set is classed as ADME, cell-free.
Data set [2] has as its system Candida albicans. Put plainly: Antifungal activity against Candida albicans TIMM1756 assessed as inhibition of fungal growth incubated for 20 hrs. The data set is classed as functional.
For data set [3], the system named is Aspergillus fumigatus. Briefly: Antifungal activity against Aspergillus fumigatus TIMM1728 assessed as inhibition of fungal growth incubated for 20 hrs. In kind it is functional.
Data set [4] deals with Cryptococcus neoformans. Put plainly: Antifungal activity against Cryptococcus neoformans TIMM1855 assessed as inhibition of fungal growth incubated for 68 hrs. The data set is classed as functional.
Data set [5] deals with Aspergillus fumigatus. Put plainly: In vivo antifungal activity against Aspergillus fumigatus infected in CDF1 mouse treated po 4 hrs after injection twice daily for 2 days measured on day 10. In kind it is functional. Conditions: 48 h, time 2 day.
Data set [6] concerns Candida albicans. Put plainly: Antifungal activity against Candida albicans TIMM1850 by agar-dilution assay. The data set is classed as functional.
In data set [7] the test system is Cryptococcus neoformans. Briefly: Antifungal activity against Cryptococcus neoformans TIMM1740 assessed as inhibition of fungal growth incubated for 68 hrs. The data set is classed as functional.
The test system of data set [8] is Candida albicans. Put plainly: In vivo antifungal activity against Candida albicans infected in CDF1 mouse treated po 4 hrs after injection twice daily for 2 days measured on day 10. In kind it is functional. Conditions: 48 h, time 2 day.
Data set [9] relates to Cryptococcus neoformans. Briefly: Antifungal activity against Cryptococcus neoformans TIMM1855 by agar-dilution assay. The data set is classed as functional. Conditions: TIMM 1855.
The subject of data set [10] is Aspergillus fumigatus. Put plainly: Antifungal activity against Aspergillus fumigatus IFO6344 assessed as inhibition of fungal growth incubated for 20 hrs. The data set is classed as functional.
Data set [11] deals with Candida albicans. Put plainly: Antifungal activity against Candida albicans TIMM1850 assessed as inhibition of fungal growth incubated for 20 hrs. In kind it is functional.
Data set [12] has as its system Aspergillus fumigatus. Put plainly: Antifungal activity against Aspergillus fumigatus TIMM1728 by agar-dilution assay. In kind it is functional.
The test system of data set [13] is Candida albicans. Put plainly: Antifungal activity against Candida albicans TIMM1756 by agar-dilution assay. The data set is classed as functional.
In data set [14] the test system is Aspergillus fumigatus. Briefly: Antifungal activity against Aspergillus fumigatus 437 by agar-dilution assay. In kind it is functional.
For data set [15], the system named is Cryptococcus neoformans. Put plainly: Antifungal activity against Cryptococcus neoformans TIMM1740 by agar-dilution assay. The data set is classed as functional.
For data set [16], the system named is Aspergillus fumigatus. Put plainly: Antifungal activity against Aspergillus fumigatus IFO6344 by agar-dilution assay. In kind it is functional.
For a further data set, the system named is Aspergillus flavus. Put plainly: Antifungal activity against Aspergillus flavus SANK 18497 by 96-well microplate method. In kind it is functional.
Data set [17] deals with Candida albicans. Put plainly: Antifungal activity against Candida albicans SANK 51486 by 96-well microplate method. The data set is classed as functional.
For another data set, the system named is Aspergillus. Briefly: Antifungal activity against Aspergillus. The data set is classed as functional.
In data set [18] the test system is Aspergillus fumigatus. Put plainly: Antifungal activity against Aspergillus fumigatus SANK 10569 by 96-well microplate method. In kind it is functional.
Data set [19] has as its system Cryptococcus neoformans. Briefly: Antifungal activity against Cryptococcus neoformans TIMM 1855 by 96-well microplate method. The data set is classed as functional.
Data set [20] concerns Aspergillus fumigatus. Briefly: Antifungal activity against Aspergillus fumigatus in 96-well microplate method. In kind it is functional.
The test system of data set [21] is Aspergillus fumigatus. Briefly: In vivo antifungal activity against Aspergillus fumigatus infected in Fisher rat administered IV. The data set is classed as functional.
The subject of data set [22] is Candida albicans. Briefly: In vivo antifungal activity against Candida albicans ATCC48130 infected in Fisher rat administered po. In kind it is functional.
Data set [23] deals with Candida albicans. Put plainly: In vivo antifungal activity against Candida albicans ATCC48130 infected in Fisher rat administered IV. In kind it is functional.
Data set [24] has as its system Aspergillus fumigatus. Briefly: In vivo antifungal activity against Aspergillus fumigatus infected in Fisher rat administered po. The data set is classed as functional.
Data set [25] concerns Cryptococcus neoformans. Put plainly: Antifungal activity against Cryptococcus neoformans. The data set is classed as functional.
The test system of a further data set is Aspergillus sp. Put plainly: Antifungal activity against Aspergillus sp. The data set is classed as functional.
The subject of another data set is Candida. Put plainly: Antifungal activity against Candida spp. The data set is classed as functional.
A short description of data set [26]: Plasma protein binding in human. The data set is classed as ADME, cell-free. Conditions: route po, read-out: PPB (converted).
For another data set, the system named is Nakaseomyces glabratus. Briefly: Antifungal activity against Candida glabrata. The data set is classed as functional.
Data set [27] deals with Candida albicans. Put plainly: In vivo antifungal activity against Candida albicans infected in CDF1 mouse treated po or iv immediately after infection measured on day 7. In kind it is functional. Conditions: 168 h, time 7 day.
A further data set concerns Pichia kudriavzevii. Briefly: Antifungal activity against Candida krusei. The data set is classed as functional.
For data set [28], the system named is Candida albicans. Briefly: In vivo antifungal activity against Candida albicans infected in CDF1 mouse treated po or iv 2 hrs after infection twice daily for 2 days measured on day 10. In kind it is functional. Conditions: 240 h, time 10 day.
For a further data set, the system named is Nannizzia gypsea. Put plainly: Antifungal activity against Microsporum gypseum. In kind it is functional.
Another data set has as its system Candida parapsilosis. Put plainly: Antifungal activity against Candida parapsilosis. Conditions: Lodderomyces parapsilosis. In kind it is functional.
In data set [29] the test system is Candida albicans. Put plainly: Antifungal activity against Candida albicans. The data set is classed as functional.
Data set [30] concerns Aspergillus fumigatus. Put plainly: Antifungal activity against Aspergillus fumigatus. The data set is classed as functional.
The subject of a further data set is Candida tropicalis. Briefly: Antifungal activity against Candida tropicalis. The data set is classed as functional.
The nature of data set [31]: Oral bioavailability in monkey relative to control. Conditions: rhesus monkey, in vivo. The data set is classed as ADME, organism-based, Macaca mulatta.
The next data set concerns the target Cytochrome P450 3A4 (Homo sapiens, UniProt P08684). Briefly: Inhibition of CYP3A4 in human hepatocyte microsomes using testosterone as substrate by LC-MS/MS analysis. In kind it is ADME, Microsome.
Data set [32] is described as follows: Water solubility of the compound at pH 7.4. The data set is classed as physicochemical. Conditions: buffer.

≈ marks a conversion by molar mass, not a printed value.

Chain of Cytochrome P450 3A4 (P08684 whole entry): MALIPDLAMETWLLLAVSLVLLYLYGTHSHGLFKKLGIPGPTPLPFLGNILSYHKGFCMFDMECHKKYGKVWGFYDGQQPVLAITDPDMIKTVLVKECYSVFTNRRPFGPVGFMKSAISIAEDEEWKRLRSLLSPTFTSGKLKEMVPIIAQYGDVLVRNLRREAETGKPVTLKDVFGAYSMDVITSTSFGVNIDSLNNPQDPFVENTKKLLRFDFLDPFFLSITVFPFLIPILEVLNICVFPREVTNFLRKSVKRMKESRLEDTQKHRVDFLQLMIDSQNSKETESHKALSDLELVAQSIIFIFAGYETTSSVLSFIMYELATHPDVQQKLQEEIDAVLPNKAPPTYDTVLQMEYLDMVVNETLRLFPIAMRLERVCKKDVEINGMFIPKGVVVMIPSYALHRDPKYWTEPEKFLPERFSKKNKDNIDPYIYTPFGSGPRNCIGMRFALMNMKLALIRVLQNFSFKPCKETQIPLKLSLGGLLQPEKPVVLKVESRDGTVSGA

As to `CC(=O)OCc1ccccc1N(C)C(=O)OC[n+]1cnn(C[C@](O)(c2ccc(F)cc2F)[C@@H](C)c2nc(-c3ccc(C#N)cc3)cs2)c1.[Cl-]`, the t1/2 in data set [1] was 13 min.

As a reminder, the MIC is the lowest concentration found to suppress growth. Usually ED50 stands for the midpoint of the dose-response relation. `C[C@@H](N1CCN(c2ccc(-n3ncnn3)cc2)C1=O)[C@](O)(Cn1cncn1)c1ccc(F)cc1F`: the MIC in the data set on Candida albicans [2] is ≤ 0.001 µg/mL; in the data set on Aspergillus fumigatus [3] it was 0.25 µg/mL (≈ 0.519 µM); with Cryptococcus neoformans [4], 0.016 µg/mL (≈ 0.0332 µM); against Candida albicans [6] it was 0.002 µg/mL (≈ 0.00415 µM); with Cryptococcus neoformans [7], 0.016 µg/mL (≈ 0.0332 µM); in the data set on Cryptococcus neoformans [9], 0.03 µg/mL (≈ 0.0623 µM). The MIC was 0.25 µg/mL (≈ 0.519 µM) with Aspergillus fumigatus [10]; ≤ 0.001 µg/mL in the data set on Candida albicans [11]; 0.03 µg/mL (≈ 0.0623 µM) with Aspergillus fumigatus [12]; 0.002 µg/mL (≈ 0.00415 µM) with Candida albicans [13]; 0.03 µg/mL (≈ 0.0623 µM) in the data set with Aspergillus fumigatus [14]; 0.03 µg/mL (≈ 0.0623 µM) in the data set with Cryptococcus neoformans [15]. The compound further came in with an MIC in the data set on Aspergillus fumigatus [16] of 0.03 µg/mL (≈ 0.0623 µM). The figures for the 50% effective dose (ED50) in the data set on Aspergillus fumigatus [5] and in the data set on Candida albicans [8] were 4 mg/kg and 0.18 mg/kg, respectively.

On to `C[C@@H](S[C@H]1CO[C@H](/C=C/C=C/c2ccc(OCC(F)(F)C(F)F)cc2)OC1)[C@](O)(Cn1cncn1)c1ccc(F)cc1F`, for which the MIC with Aspergillus flavus was 0.125 µg/mL (≈ 0.199 µM); against Candida albicans [17], 0.016 µg/mL (≈ 0.0254 µM); with Aspergillus it was ≤ 0.5 µg/mL; against Aspergillus fumigatus [18] it was 0.125 µg/mL (≈ 0.199 µM); with Cryptococcus neoformans [19], 0.031 µg/mL (≈ 0.0492 µM).

The MIC80 is the lowest concentration that inhibits either 80% of growth or 80% of the strains tested, depending on the study. On to `COc1ccc(-c2nc3c(s2)CN([C@H](C)[C@](O)(Cn2cncn2)c2ccc(F)cc2F)C3=O)cn1`, for which the MIC80 against Aspergillus fumigatus [20] came to 4 µg/mL (≈ 8.02 µM).

`CNCC(=O)Oc1c(C)cc(C[n+]2cnn(C[C@](O)(c3ccc(F)cc3F)[C@@H](C)c3nc(-c4ccc(C#N)cc4)cs3)c2)cc1C`: the ED50 turned out to be 17 µmol/kg in the data set with Aspergillus fumigatus [21], 4.7 µmol/kg with Candida albicans [22], 4.6 µmol/kg in the data set with Candida albicans [23] and 19 µmol/kg in the data set on Aspergillus fumigatus [24].

With `C[C@@H](N1C(=O)N(c2ccc(-n3cnnn3)cc2)CC1O)[C@](O)(Cn1cncn1)c1ccc(F)cc1F` (stereo in doubt; 140a), the minimum inhibitory concentration (MIC) with Cryptococcus neoformans [25] (Cryptococcus neoformans, read-out: MIC) is 8 µg/mL (≈ 16.1 µM); in the data set on Aspergillus sp. (Aspergillus sp., read-out: MIC), 32 µg/mL (≈ 64.3 µM); in the data set with Candida, ≥ 0.25 µg/mL.

On to `C[C@@H](N1C(=O)N(c2ccc(-n3cnnn3)cc2)CC1O)[C@](O)(Cn1cncn1)c1ccc(F)cc1F` (stereo in doubt; 140b), for which the minimum inhibitory concentration (MIC) was determined as 8 µg/mL (≈ 16.1 µM) with Cryptococcus neoformans [25] and 32 µg/mL (≈ 64.3 µM) against Aspergillus sp..

Take `C=C1CCN([C@H](C)[C@](O)(Cn2cncn2)c2ccc(F)cc2F)CC1` [EFINACONAZOLE]: the fraction unbound in [26] is 0.04.

For `C[C@@H](S[C@H]1CO[C@H](/C=C/C=C/c2ccc(C#N)cc2F)OC1)[C@](O)(Cn1cncn1)c1ccc(F)cc1F` [EMBECONAZOLE], the MIC is ≤ 0.008 µg/mL against Aspergillus flavus; ≤ 0.008 µg/mL in the data set with Candida albicans [17]; < 0.5 µg/mL in the data set on Aspergillus; ≤ 0.008 µg/mL against Aspergillus fumigatus [18]; ≤ 0.008 µg/mL with Cryptococcus neoformans [19].

Consider `OC(Cn1cncn1)(Cn1cncn1)c1ccc(F)cc1F` [FLUCONAZOLE], for which the MIC in the data set with Nakaseomyces glabratus was 0.12 µg/mL (≈ 0.392 µM); in the data set on Aspergillus flavus it was 0.25 µg/mL (≈ 0.816 µM); in the data set on Candida albicans [17], 0.25 µg/mL (≈ 0.816 µM); against Pichia kudriavzevii it was 0.12 µg/mL (≈ 0.392 µM); against Nannizzia gypsea, 32 µg/mL (≈ 104 µM); against Candida parapsilosis it was 0.12 µg/mL (≈ 0.392 µM). Further, the minimal inhibitory concentration (MIC) against Candida albicans [29] was 0.12 µg/mL (≈ 0.392 µM); with Aspergillus fumigatus [30], > 64 µg/mL; in the data set on Candida tropicalis it was 0.12 µg/mL (≈ 0.392 µM); in the data set on Aspergillus fumigatus [18] it was 0.25 µg/mL (≈ 0.816 µM); against Cryptococcus neoformans [19], 0.25 µg/mL (≈ 0.816 µM). Further, the ED50 with Candida albicans [27] was determined as 0.22 mg/kg; with Candida albicans [28], 179 mg/kg; in the data set on Candida albicans [8], 0.22 mg/kg.

The bioavailability is the share of a dose that reaches the circulation, judged against a reference dose that is usually intravenous. As to `C[C@@H](c1nc(-c2ccc(C#N)cc2)cs1)[C@](O)(Cn1cncn1)c1cc(F)ccc1F` [ISAVUCONAZOLE], the bioavailability in data set [31] is 87%.

With `CCC(C)n1ncn(-c2ccc(N3CCN(c4ccc(OCC5COC(Cn6cncn6)(c6ccc(Cl)cc6Cl)O5)cc4)CC3)cc2)c1=O` (stereo unspecified) [ITRACONAZOLE], the minimal inhibitory concentration (MIC) in the data set on Nakaseomyces glabratus is ≤ 0.25 µg/mL; against Aspergillus flavus, 0.031 µg/mL (≈ 0.0439 µM); with Candida albicans [17], 0.031 µg/mL (≈ 0.0439 µM); with Pichia kudriavzevii it was ≤ 0.25 µg/mL; against Candida parapsilosis, ≤ 0.25 µg/mL; in the data set on Candida albicans [29] it was ≤ 0.25 µg/mL. In addition, the values for the MIC with Candida tropicalis, against Aspergillus fumigatus [18] and in the data set on Cryptococcus neoformans [19] were ≤ 0.25 µg/mL, 0.031 µg/mL (≈ 0.0439 µM) and 0.031 µg/mL (≈ 0.0439 µM), respectively. Besides, the ED50 was 5.19 mg/kg with Candida albicans [27] and 19 mg/kg in the data set with Candida albicans [28].

Broadly, the IC50 is the midpoint of a concentration-inhibition curve. One may read the solubility as the concentration that dissolves in the medium under given conditions. Regarding `C[C@@H](c1nc(-c2ccc(C#N)cc2)cs1)[C@](O)(Cn1cncn1)c1ccc(F)cc1F` [RAVUCONAZOLE], in the data set on Nannizzia gypsea, the MIC80 worked out at 1 µg/mL (≈ 2.29 µM). Further, it took 1010 nM to reach half-maximal inhibition against Cytochrome P450 3A4 (IC50). This compound also had a solubility in data set [32] of 600 µg/mL (≈ 1370 µM).
